# Source: patent US7563774B2, “Combination of FBPase inhibitors and antidiabetic agents useful for the treatment of diabetes” (Metabasis Therapeutics, Inc., priority 2000, dated 2009)
# Key:
# [1] = test system: streptozotocin diabetic Sprague Dawley rats; test: Acute combination treatment of an FBPase inhibitor and an amylin agonist in streptozotocin diabetic rats (Example HH); assay type: in vivo, rat; conditions: pramlintide 10 micrograms i.v., Compound J 300 mg/kg p.o.
# Experimental: Animals are then gavaged with 1 mL 50% glucose, and allowed ad libitum access to food. Blood glucose is collected from the tail vein at 0, 30, 60, 120, 180, and 240 minutes following glucose administration.
# [2] = test system: streptozotocin-induced diabetic rat; test: Chronic combination treatment of a fatty acid oxidation inhibitor and an FBPase inhibitor in the streptozotocin-induced diabetic rat (Example JJ); assay type: in vivo; conditions: etomoxir 3-300 mg/kg s.c., Compound J 0.2% w/w food admixture, 2-6 weeks
# Experimental: Male Sprague-Dawley rats (Charles Rivers Laboratories) weighing approximately 120 g at the beginning of the study are housed under standard vivarium conditions and fed standard chow (Purina 5001). Rats are rendered diabetic by injection of 55 mg/kg body weight of streptozotocin (STZ) in citrate buffer, pH 4.7. […] Drug treatment is continued for 2-6 weeks. Blood glucose levels are monitored at regular intervals during the treatment period. At the end of the study, rats are anesthetized and instrumented with jugular vein and carotid artery catheters. Hepatic glucose production is measured using a primed constant infusion of (^3H)-6-glucose. Blood samples are taken after two hours, and the specific activity of glucose measured by […]. Hepatic glucose production rater are calculated by standard methods.
# [3] = test system: Db/db or ob/ob mice; test: Acute combination treatment of a glycogen phosphorylase inhibitor and an FBPase inhibitor in db/db or ob/ob mice (Example FF); assay type: in vivo, mouse; conditions: 0.5 to 300 mg/kg p.o.
# Experimental: Db/db or ob/ob mice are purchased at 5 weeks of age from Jackson Laboratories (Bar Harbor, Me.). The mice are maintained under standard vivarium conditions (24-26° C., 12-hour light cycle, 12-hour dark cycle) and receive standard chow and water ad libitum. At more than 10 weeks of age, animals are divided into 4 groups (n=5 to 7/group). […] Food is made available after treatment. Blood glucose levels in tail vein samples are measured by means of standard manual or automated methods.
# [4] = test system: Sprague Dawley rats; test: Oral glucose lowering in overnight fasted Sprague Dawley rats (Example G); assay type: in vivo, rat; conditions: 4 h
# Experimental: Oral efficacy of Compound J was assessed in overnight fasted Sprague Dawley rats. […] At 1.5 h or 4 h post drug administration, a blood sample was taken from the tail vein and analyzed for blood glucose by means of an automated glucose analyzer (HemoCue, HemoCue Inc, Mission Viejo, Calif.).
# [5] = test system: db/db mice; test: Glucose lowering in the db/db mouse (Example V); assay type: in vivo; conditions: last treatment day (day 18)
# Experimental: Treatment was for 18 days. […] Differences between groups were evaluated by the Student's t-test. Results are considered significant with p<0.05.
# [6] = test system: Zucker Diabetic Fatty (ZDF) rat; test: Glucose lowering in the ZDF rat (Example W); assay type: in vivo
# Description: The Zucker Diabetic Fatty (ZDF) rat is widely used as a model for human NIDDM as the progression of the disease in these rodents is similar to that described for human […] patients. […] Clark J B, Palmer C J (1982) Diabetes 30: 126A Terrettaz J, Jeanrenaud B (1983) Endocrinology 112: 1346-1351.
# [7] = test system: C57BL/KsJ db/db mice; test: Acute combination treatment of insulin and Compound G in db/db mice (Example Z); assay type: in vivo, mouse
# Experimental: Male C57BL/KsJ db/db mice were purchased at 5 weeks of age from Clea Japan, Inc. (Tokyo, Japan). The mice were maintained under standard vivarium conditions (24-26° C., 12-hour light cycle, 12-hour dark cycle) and received standard chow and water ad libitum. At 20 weeks of age, animals were divided into 4 groups (n=6/group). The treatment groups were control, compound G, insulin, and the combination of compound G and insulin. […] Insulin (human recombinant insulin, Penfill R300, Novo Nordisk, Denmark) was injected subcutaneously at a dose of 1.5 U/kg. Food was removed after treatment. Blood glucose levels in tail vein samples were measured by means of a Glucoloader-F, an automatic glucose analyzer, (A&T Co., Ltd., Tokyo, Japan).
# [8] = test system: C57BL/KsJ db/db mice; test: Chronic combination treatment of insulin and Compound G in db/db mice (Example AA); assay type: in vivo, mouse; conditions: db/db mice, 3 weeks
# Experimental: Male C57BL/KsJ db/db mice were purchased at 5 weeks of age from Clea Japan, Inc. (Tokyo, Japan). The mice were maintained under standard vivarium conditions (24-26° C., 12-hour light cycle, 12-hour dark cycle) and received standard chow and water ad libitum. At 16 weeks of age, animals were divided into 2 groups (n=5 or 9-10/group). Both groups were subcutaneously injected with human recombinant insulin (Penfill N300, Novo Nordisk, Denmark) on a daily basis to adjust plasma glucose levels to the target range of 250 to 300 mg/dL.
# [9] = test system: Zucker Diabetic Fatty rats; test: Acute combination treatment of an insulin secretagogue and Compound J in the ZDF rat (Example X); assay type: in vivo
# Experimental: Experimental Protocol: Zucker Diabetic Fatty rats (9.5 weeks of age) were fasted for 5 hours starting at 8 am. The animals were then divided into 4 treatments groups with statistically similar baseline blood glucose levels. Test compounds were administered by oral gavage. The treatments were as shown below:
# One hour after saline or drug administration, all animals received a simulated meal in the form of an oral bolus of glucose (1 g/kg). Blood glucose was then monitored at regular time intervals for 3 hours. Test compounds were prepared as suspensions in 0.1% carboxymethylcellulose. Blood samples were obtained by nicking of a tail vein. Blood glucose was measured by means of a HemoCue glucose analyzer according to the manufacturer's instructions (HemoCue Inc., Mission Viejo, Calif.). Results are expressed as the mean ± standard error of the mean for all values.
# [10] = test system: ZDF rats; test: Chronic combination treatment of an insulin secretagogue and an FBPase inhibitor in the ZDF rat (Example Y); assay type: in vivo; conditions: maximal doses, 2 to 12 weeks
# Description: Male ZDF rats are purchased at 7 weeks of age from Genetics Models Inc. (Indianapolis, Ind.). […] At 8 weeks of age, animals are divided into 4 treatment groups (n=8/group). The treatments are control, Compound J, glyburide, and the combination of Compound J and glyburide. […] Other parameters measured by standard assays include: lactate, glycerol, alanine, triglycerides, free fatty acids, ketone bodies, hepatic and muscle glycogen, cholesterol, VLDL, HDL, hemoglobin Alc, body weight, food and water intake, as well as other measures of carbohydrate, lipid, and protein metabolism. […] Differences between groups are evaluated ANOVA using an appropriate post hoc test. Results are considered significant with p<0.05.
# [11] = test system: Sprague-Dawley or Wistar rats; conditions: fasted rat, cited from earlier work
# [12] = biological target: T1, human liver FBPase (Homo sapiens, UniProt P09467); test: Inhibition of human liver FBPase (Example A); assay type: biochemical
# T1 construct: made in house; host or cells: E. coli BL21
# T1 sequence (P09467 2-338 limits assumed): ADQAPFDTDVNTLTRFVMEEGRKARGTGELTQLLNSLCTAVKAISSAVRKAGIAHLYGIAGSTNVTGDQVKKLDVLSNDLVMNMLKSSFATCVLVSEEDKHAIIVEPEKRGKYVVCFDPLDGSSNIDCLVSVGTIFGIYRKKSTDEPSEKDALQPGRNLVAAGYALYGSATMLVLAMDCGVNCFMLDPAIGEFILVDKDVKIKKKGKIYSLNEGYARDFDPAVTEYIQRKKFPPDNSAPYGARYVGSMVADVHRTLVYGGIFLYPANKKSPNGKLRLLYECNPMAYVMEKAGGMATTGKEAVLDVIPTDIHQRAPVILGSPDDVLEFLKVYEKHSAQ
# Experimental: (§1) Enzymatic activity was measured spectrophotometrically in reactions that coupled the formation of product (fructose 6- phosphate) to the reduction of dimethylthiazoldiphenyltetrazolium bromide (MTT) via NADP and phenazine methosulfate (PMS), using phosphoglucose isomerase and glucose 6-phosphate dehydrogenase as the coupling enzymes. […] Inhibitor concentrations were varied from 0.01 μM to 10 μM. Reactions were started by the addition of 0.002 units of pure hlFBPase and were monitored for 7 minutes at 590 nm in a Molecular Devices Plate Reader (37° C.).
# [13] = biological target: T2, rat liver FBPase (Rattus norvegicus, UniProt P19112); test: Inhibition of rat liver FBPase (Example B); assay type: biochemical
# T2 construct: made in house; host or cells: E. coli BL21
# T2 sequence (P19112 2-363 limits assumed): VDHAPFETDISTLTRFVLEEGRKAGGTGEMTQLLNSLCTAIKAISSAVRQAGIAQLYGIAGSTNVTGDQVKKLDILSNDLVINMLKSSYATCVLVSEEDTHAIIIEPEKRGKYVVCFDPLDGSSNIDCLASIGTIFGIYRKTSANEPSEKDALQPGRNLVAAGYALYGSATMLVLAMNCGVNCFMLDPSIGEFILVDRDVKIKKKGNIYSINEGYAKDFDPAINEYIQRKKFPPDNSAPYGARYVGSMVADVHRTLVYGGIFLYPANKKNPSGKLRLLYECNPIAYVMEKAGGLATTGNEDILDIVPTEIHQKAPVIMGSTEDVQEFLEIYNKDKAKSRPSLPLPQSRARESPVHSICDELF
# [14] = biological target: T3, mouse liver FBPase (Mus musculus, UniProt Q9QXD6); test: Inhibition of mouse liver FBPase (Example B); assay type: biochemical
# T3 construct: This partially purified fraction was used for enzyme assays; from tissue; host or cells: mouse liver (45-75% ammonium sulfate fraction of homogenate)
# T3 sequence (Q9QXD6 2-338 limits assumed): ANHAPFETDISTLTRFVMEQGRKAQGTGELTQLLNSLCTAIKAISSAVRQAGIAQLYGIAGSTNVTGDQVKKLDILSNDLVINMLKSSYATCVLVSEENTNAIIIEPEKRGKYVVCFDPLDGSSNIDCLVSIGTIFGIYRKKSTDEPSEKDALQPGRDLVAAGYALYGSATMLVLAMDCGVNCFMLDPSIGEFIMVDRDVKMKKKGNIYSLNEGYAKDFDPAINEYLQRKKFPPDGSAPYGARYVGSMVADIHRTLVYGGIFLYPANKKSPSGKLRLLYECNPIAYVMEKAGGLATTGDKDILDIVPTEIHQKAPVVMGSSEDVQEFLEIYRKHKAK
# Experimental: as §1
# Mouse liver FBPase was obtained by homogenizing freshly isolated mouse liver in 100 mM Tris-HCl buffer, pH 7.4, containing 1 mM EGTA, and 10% glycerol. […] This fraction was redissolved in the homogenization buffer and desalted on a PD-10 gel filtration column (Biorad) eluted with same. This partially purified fraction was used for enzyme assays.
compound,measurement,setting,value
"CC[C@H](C)[C@H](NC(=O)[C@@H]1CCCN1C(=O)CNC(=O)[C@H](Cc1ccccc1)NC(=O)[C@H](CC(N)=O)NC(=O)[C@H](CC(N)=O)NC(=O)[C@H](CO)NC(=O)[C@H](CO)NC(=O)[C@H](Cc1c[nH]cn1)NC(=O)[C@@H](NC(=O)[C@H](CC(C)C)NC(=O)[C@H](Cc1ccccc1)NC(=O)[C@H](CC(N)=O)NC(=O)[C@H](C)NC(=O)[C@H](CC(C)C)NC(=O)[C@H](CCCNC(=N)N)NC(=O)[C@H](CCC(N)=O)NC(=O)[C@@H](NC(=O)[C@H](C)NC(=O)[C@@H]1CSSC[C@H](NC(=O)[C@@H](N)CCCCN)C(=O)N[C@@H](CC(N)=O)C(=O)N[C@@H]([C@@H](C)O)C(=O)N[C@@H](C)C(=O)N[C@@H]([C@@H](C)O)C(=O)N1)[C@@H](C)O)C(C)C)C(=O)N[C@@H](CC(C)C)C(=O)N1CCC[C@H]1C(=O)N1CCC[C@H]1C(=O)N[C@H](C(=O)N[C@@H](CC(N)=O)C(=O)N[C@H](C(=O)NCC(=O)N[C@@H](CO)C(=O)N[C@@H](CC(N)=O)C(=O)N[C@H](C(=O)N[C@@H](Cc1ccc(O)cc1)C(N)=O)[C@@H](C)O)C(C)C)[C@@H](C)O [pramlintide, reference compound]",postprandial glucose excursion,[1],attenuated the postprandial glucose excursion
"CCOC(=O)[C@@]1(CCCCCCOc2ccc(Cl)cc2)CO1 [etomoxir, reference compound]",Blood Glucose,[2],lowered significantly
"CN(C)C(=O)[C@H](O)[C@H](Cc1ccccc1)NC(=O)c1cc2cc(Cl)ccc2[nH]1 [CP-91149, reference compound]",blood glucose lowering,[3],significantly lower blood glucose relative to control values
"CSc1sc(N)nc1-c1ccc(P(=O)(O)O)o1 [Compound G, 2-Amino-5-methylthio-4-[2-(5-phosphono)furanyl]thiazole]","Glucose Lowering, %",[4]; Compound G 10 mg/kg p.o.,48%
same,"Glucose Lowering, %",[4]; Compound G 30 mg/kg p.o.,>70%
same,blood glucose levels versus control group,[5],significantly lower than those in the control group
same,glycemic control,[6],significantly improved glycemic control
same,Blood Glucose,"[6]; 0.2% food admixture, Day 14",530 ± 48 mg/dL
same,"Plasma Glucose, % of pretreatment values",[7]; after 1 hour,(84.2 +/− 1.9) %
same,Plasma Glucose,"[7]; after 1 hour, Compound G 200 mg/kg p.o., insulin 1.5 U/kg s.c.",650.8 ± 14.8 mg/dL
same,Plasma Glucose,[7]; after 4 hours,373.7 ± 24.7 mg/dL
same,"Plasma Glucose, % of pretreatment values",[7]; after 4 hours,(48.6 +/− 4.0) %
same,Plasma Glucose,[7]; after […],459.7 ± 11.5 mg/dL
same,"Plasma Glucose, % of pretreatment values",[7]; after […],(59.6 +/− 2.3) %
same,Plasma Glucose,[7]; before (0 hour),774.0 ± 18.3 mg/dL
same,"Plasma Glucose, % of pretreatment values",[7]; before (0 hour),(100.0 +/− 0.0) %
same,plasma glucose lowering,"[7]; db/db mice, acute",progressively decreased plasma glucose levels
same,insulin dose required to lower plasma glucose to the target range,[8],remarkably decreased the insulin dose required
"COc1ccc(Cl)cc1C(=O)NCCc1ccc(S(=O)(=O)NC(=O)NC2CCCCC2)cc1 [Glyburide, glyburide, reference compound]",blood glucose after oral glucose load (FIG. 1),"[9]; glyburide 100 mg/kg, Compound J 300 mg/kg p.o.",suppressed the rise in blood glucose levels
same,AUC glucose,"[9]; initial 4 hours post drug, glyburide 100 mg/kg, Compound J 300 mg/kg p.o., oral glucose 1 g/kg",1324 ± 132 mg·h/dL
same,maximally efficacious dose,"[9]; pilot studies, ZDF rat",100 mg/kg
same,glycemic control,[10],becomes less and less effective over time
same,ED50,[11]; 2 h,0.255 (2 h) mg/kg
same,"Gluc low,%",[11]; Dose 0.3,−25%
Nc1ncnc2c1ncn2[C@@H]1O[C@H](COP(=O)(O)O)[C@@H](O)[C@H]1O [AMP],IC50,[12],1.3 µM
same,IC50,[13],25 µM
same,IC50,[14],15 µM
